Test results reported in patent US20090016991A1, “Rxr Antagonist Treatment Against Multiple Sclerosis” (priority 2004, published 2009).
Entries after “also recorded” stand apart in the source; their conditions may differ.

Key:
[1] = tested on: synovial fibroblasts; assay: In vitro cartilage degradation by RA synovial fibroblasts (sGAG release); assay type: cell-based, human; conditions: for Release of sGAG: 14 days
Protocol: (§1) Methods: The effect of RXR antagonists on the activity of synovial fibroblasts, dependent on their state of activation, i.e. modified by a concomitant stimulation by the inflammatory cytokine Interleukin-1β (IL-1β), was determined. Furthermore, it was determined whether this was accompanied by a modulation in the accumulation of the mRNA encoding catabolic enzyme matrix metalloproteinase-1 (MMP-1), responsible for degradation of human cartilage and consequently joint destruction in man. Adherent synovial fluid cells taken from a patient with RA were used after 5 passages in an in vitro assay for cartilage destruction. The cells incubated in flasks coated with 0.1% (0.1 g/100 ml) human cartilage powder were fixed using Matrigel® (BD Biosciences, Becton, Dickinson & Co., Boston, Mass., USA). The release of sulphated glycosaminoglycan (sGAG) into the culture medium was monitored by a commercial colorimetric test according to a method described by S. Björnsson, see Anal. Biochem. 256, 229-237 (1998) using an alcian blue dot plot analysis, and the accumulation of mRNA encoding MMP-1 was quantified by real time PCR (TaqMan® (Roche Diagnostics, Basle, Switzerland)).
The retinoid agonists all-trans retinoic acid and 9-cis retinoic acid, both physiological metabolites of vitamin A, as well as the RXR antagonist compound A, diluted first in ethanol, and then diluted with vehicle or medium to the desired dose/concentration were tested in a time course (0-35 days for the in vitro assay, 0-48 hours for MMP-1 mRNA, see tables 7, 8 and 10) and dose-dependent (10^−7 to 10^−9 M, see tables 5, 6 and 9). This was conducted in the presence or absence of IL-1β (100 pg/ml).

[2] = tested on: MMP-1 mRNA; assay: MMP-1 mRNA accumulation in synovial fibroblasts (real time PCR); assay type: cell-based, human
Protocol: as §1, with “Switzerland)). […] This was conducted in the presence or absence of IL-1β (100 pg/ml).” for “Switzerland)).”

[3] = tested on: MMP-9; assay: MMP-9 protein expression in human PBMC (zymography and ELISA); assay type: cell-based; conditions: for MMP-9 Inhibition of expression: vs vehicle control (0%)
Excerpt: For details on the method see: (A) Effect of RXR antagonists on expression of MMP-9 protein in human peripheral blood mononuclear cells (PBMC) in vitro, Leppert D et al, J Immunol 1995, 154:4379-4389; (B) Leppert D et al, Ann Neurol 1996, 40: 846-852; (C) Leppert D et al, Brain 1998, 121, 2327-2334; (D) Lindberg R et al, Brain 2001, 124: 1743-1753; (E) Gilli F et al, Brain 2004, 127: 1-10, which are incorporated by reference herein, especially with regard to the method.
Method: Fresh human peripheral blood mononuclear cells (PBMC) were prepared and expanded by stimulation with PHA as described in Leppert D et al, Ann Neurol 1996; 40: 846-852. 1×10^6 cells were pretreated with the RXR antagonist compound A in concentrations of 10^−6 M, 10^−7 M and 10^−8 M for 18 hours. Vehicle was used as control.
In two different experiments, after pretreatment with compound A, PBMCs were stimulated for 24 hours with Interleukin-2 (IL-2) 50 U/ml in one group, or not stimulated with IL-2 in another group.
The effect of the mentioned concentrations of compound A was compared with vehicle controls in the IL-2 stimulated and in the non IL-2 stimulated cultures of PBMC. The expression of MMP-9 protein was determined by analysis with zymography and ELISA, see especially references (A) under “Zymographic analysis of conditioned medium (CM)” and (C) under “ELISA (enzyme linked immunosorbent assay) for MMP-9” mentioned above, respectively.

[4] = absence of IL-1β, 10^−7 M, vehicle control 48
[5] = absence of IL-1β, 10^−8 M, vehicle control 48
[6] = absence of IL-1β, 10^−8 M, day 7, control 23
[7] = absence of IL-1β, 10^−8 M, day 14, control 48
[8] = absence of IL-1β, 10^−8 M, day 21, control 84
[9] = absence of IL-1β, 10^−8 M, day 28, control 112
[10] = absence of IL-1β, 10^−8 M, day 35, control 117
[11] = absence of IL-1β, 10^−9 M, vehicle control 48
[12] = presence of 100 pg/ml IL-1β, 10^−7 M, vehicle control 173
[13] = presence of 100 pg/ml IL-1β, 10^−8 M, vehicle control 173
[14] = presence of 100 pg/ml IL-1β, 10^−8 M, day 7, control 86
[15] = presence of 100 pg/ml IL-1β, 10^−8 M, day 14, control 173
[16] = presence of 100 pg/ml IL-1β, 10^−8 M, day 21, control 212
[17] = presence of 100 pg/ml IL-1β, 10^−8 M, day 28, control 249
[18] = presence of 100 pg/ml IL-1β, 10^−8 M, day 35, control 271
[19] = presence of 100 pg/ml IL-1β, 10^−9 M, vehicle control 173
[20] = 10^−7 M, after 24 hours, vehicle control 1
[21] = 10^−8 M, 12 hours, control 1.13
[22] = 10^−8 M, 48 hours, control 1.09
[23] = 10^−8 M, after 24 hours, vehicle control 1
[24] = 10^−9 M, after 24 hours, vehicle control 1

Structure (SMILES)	Release of sGAG [1, 4]	Release of sGAG [1, 5]	Cumulative sGAG release [1, 6]	Cumulative sGAG release [1, 7]	Cumulative sGAG release [1, 8]	Cumulative sGAG release [1, 9]	Cumulative sGAG release [1, 10]	Release of sGAG [1, 11]	Effect on cartilage destruction in vitro (basal activity of synovial fibroblasts) ([1]; absence of IL-1β, in words)	Release of sGAG [1, 12]	Release of sGAG [1, 13]	Cumulative sGAG release [1, 14]	Cumulative sGAG release [1, 15]	Cumulative sGAG release [1, 16]	Cumulative sGAG release [1, 17]	Cumulative sGAG release [1, 18]	Release of sGAG [1, 19]	MMP-1 mRNA (fold increase of baseline value) [2, 20]	MMP-1 mRNA (fold increase of baseline value) ([2]; 10^−8 M, 0 hours)	MMP-1 mRNA (fold increase of baseline value) ([2]; 10^−8 M, 2 hours)	further results
CC1=C(/C=C/C(C)=C\C=C\C(C)=C\C(=O)O)C(C)(C)CCC1 [9-cis RA, 9-cis retinoic acid, reference compound]	189 µg/mL	107 µg/mL	44 µg/mL	107 µg/mL	206 µg/mL	253 µg/mL	292 µg/mL	64 µg/mL	increased cartilage destruction in vitro in a dose-dependent manner	221 µg/mL	189 µg/mL	68 µg/mL	189 µg/mL	330 µg/mL	407 µg/mL	441 µg/mL	204 µg/mL	2.60 relative units	1 relative units	0.98 relative units	Effect on cartilage destruction in vitro, time course ([1]; presence and absence of IL-1β, in words): markedly increased cartilage destruction; MMP-1 mRNA (fold increase of baseline value) ([2]; 10^−8 M, 6 hours): 1.31 relative units; MMP-1 mRNA (fold increase of baseline value) [2, 21]: 3.39 relative units; MMP-1 mRNA (fold increase of baseline value) ([2]; 10^−8 M, 24 hours): 3.79 relative units; MMP-1 mRNA (fold increase of baseline value) [2, 22]: 1.47 relative units; MMP-1 mRNA (fold increase of baseline value) [2, 23]: 3.39 relative units; MMP-1 mRNA (fold increase of baseline value) [2, 24]: 1.54 relative units
CCCCOc1c(\C(C)=C/C=C/C(C)=C/C(=O)O)cc(C(C)(C)C)cc1C(C)(C)C [compound A, (2E,4E,6Z)-7-[2-butoxy-3,5-bis(1,1-dimethylethyl)phenyl]-3-methyl-2,4,6-octatrienoic acid]	39 µg/mL	57 µg/mL	44 µg/mL	57 µg/mL	57 µg/mL	39 µg/mL	34 µg/mL	46 µg/mL	no effect	41 µg/mL	89 µg/mL	67 µg/mL	89 µg/mL	89 µg/mL	173 µg/mL	56 µg/mL	144 µg/mL	0.68 relative units	1 relative units	1.13 relative units	Effect on IL-1β dependent cartilage destruction (sGAG) ([1]; presence of IL-1β, in words): markedly inhibited; MMP-1 mRNA (fold increase of baseline value) ([2]; 10^−8 M, 6 hours): 0.81 relative units; MMP-1 mRNA (fold increase of baseline value) [2, 21]: 1.12 relative units; MMP-1 mRNA (fold increase of baseline value) ([2]; 10^−8 M, 24 hours): 0.87 relative units; MMP-1 mRNA (fold increase of baseline value) [2, 22]: 0.83 relative units; MMP-1 mRNA (fold increase of baseline value) [2, 23]: 1.12 relative units; MMP-1 mRNA (fold increase of baseline value) [2, 24]: 1.05 relative units; Effect on production, release and/or activity (expression) of MMP-9 ([3]; PBMC, IL-2 stimulated and not stimulated, ELISA and zymography, in words): very strong suppressive effect; also recorded: marked suppressive or inhibitory effect; MMP-9 Protein (total protein in the supernatant) ([3]; PBMCs not stimulated with IL-2, 10^−6 M, 18 h pretreatment): 33 ng/mL; MMP-9 Inhibition of expression ([3]; PBMCs not stimulated with IL-2, 10^−6 M): 53%; MMP-9 Protein (total protein in the supernatant) ([3]; PBMCs not stimulated with IL-2, 10^−7 M, 18 h pretreatment): 43 ng/mL; MMP-9 Inhibition of expression ([3]; PBMCs not stimulated with IL-2, 10^−7 M): 39%; MMP-9 Protein (total protein in the supernatant) ([3]; PBMCs not stimulated with IL-2, 10^−8 M, 18 h pretreatment): 51 ng/mL; MMP-9 Inhibition of expression ([3]; PBMCs not stimulated with IL-2, 10^−8 M): 28%; MMP-9 Protein (total protein in the supernatant) ([3]; PBMCs stimulated with IL-2 50 U/ml 24 h, 10^−6 M): 29 ng/mL; MMP-9 Protein (total protein in the supernatant) ([3]; PBMCs stimulated with IL-2 50 U/ml 24 h, 10^−7 M): 41 ng/mL; MMP-9 Protein (total protein in the supernatant) ([3]; PBMCs stimulated with IL-2 50 U/ml 24 h, 10^−8 M): 40 ng/mL; MMP-9 Inhibition of expression ([3]; PBMCs stimulated with IL-2, 10^−6 M): 52%; MMP-9 Inhibition of expression ([3]; PBMCs stimulated with IL-2, 10^−7 M): 33%; MMP-9 Inhibition of expression ([3]; PBMCs stimulated with IL-2, 10^−8 M): 34%
